One data set in a line: in vivo. Further details: species or system Göttingen minipigs. To be noted: female, Göttingen, minipig, iv, 2 nmol/kg. On the procedure:
Studies were conducted in accordance with the Protection of Animals Act, the Act on Experiments on Animals, and the Standard Operating Procedures for Experiments on Animals at Novo Nordisk A/S. The experiments were performed under the supervision and approval of the Danish Government Animal Experiments Inspectorate and the Novo Nordisk Ethical Review Counsel. Female Göttingen minipigs (Ellegaard Göttingen Minipigs A/S), 7–14 months old and weighing 16–35 kg, were housed individually and fed once daily with a restricted SDS minipig diet (Special Diets Services). At least one week before the study, two permanent central venous catheters were implanted in the caudal vena cava of each animal. The animals were fasted for approximately 18 h before dosing and 4 h after dosing but had ad libitum access to water during the whole period. Test compounds dissolved to a concentration of 20–40 nmol/mL in a vehicle (pH 7.4) containing 0.025% polysorbate-20, 10 mM sodium phosphate, and 250 mM glycerol were administered via an intravenous injection through one catheter at a dose of 2 nmol/kg. Blood samples were collected in 8 mM aqueous EDTA for up to 14 days post dosing, preferably through the other catheter, then centrifuged at 4 °C and ∼2000g for 10 min. Plasma was isolated and immediately frozen until RP-HPLC/MS analysis. Individual plasma concentration–time profiles were analysed by a non-compartmental model in Phoenix WinNonLin software (Pharsight Inc.), and the resulting terminal half-lives were determined at the harmonic mean.

The next data set has as its target T1, hGLP-1 Receptor (Homo sapiens, UniProt P43220).
T1 construct: expressed in transfected cells; host or cells: baby hamster kidney (BHK) cells, stably transfected, with CRE-firefly luciferase reporter
The data set can be described thus: Receptor activation: cAMP production by CRE-luciferase reporter in stably transfected BHK cells. To be noted: compared to the native ligand for the receptor. The data set is classed as cell-based. On the procedure: (§1) Cyclic AMP (cAMP) production was assessed as a proxy for receptor activation using stably transfected baby hamster kidney (BHK) cell lines expressing the DNA for one individual receptor (GLP-1R, GIPR, GcgR; human- or mouse-specific sequence) and the DNA for the firefly luciferase reporter gene linked to the cAMP response element (CRE). The cells were kept in continuous culture at 37 °C and 5% CO2 in Dulbecco's Modified Eagle Medium (DMEM) supplemented with 10% heat-inactivated fetal bovine serum (HI-FBS), 300 μg/mL hygromycin, and 500 μg/mL G418; for cell lines expressing GIPR, the G418 concentration was lowered to 400 μg/mL. Cells were plated in a 96-well poly-D-lysine-coated plate at 5,000 cells per well in growth media and incubated overnight at 37 °C with 5% CO2. After the overnight incubation, the media was removed, the plate was washed once in Dulbecco's phosphase-buffered saline (DPBS), and 50 μL of assay buffer (DMEM without phenol red, 10 mM HEPES, 1x Glutamax, 1% ovalbumin, 0.1% Pluronic F-68) was added to each well. […] Aliquots of the dilution curves were added to the cell plate in a volume of 50 μL per well resulting in final assay concentrations ranging from 1 × 10^−14 to 1 × 10^−7 M. The assay plate was incubated for 3 h at 37 °C and 5% CO2. After the incubation, the assay plate was washed once with DPBS. A 100 μL aliquot of DPBS was added to each well followed by 100 μL of steadylite plus reagent (PerkinElmer). The assay plate was covered to protect reagent from light, shaken at 250 rpm at room temperature for 30 min, and read in a microtiter plate reader. EC50 values were calculated using Prism software (GraphPad) with the nonlinear regression log(agonist) vs. response. A minimum of two replicates were measured for each sample.

The target of a further data set is T2, hGIP Receptor (Homo sapiens, UniProt P48546).
T2 construct: expressed in transfected cells; host or cells: baby hamster kidney (BHK) cells, stably transfected, with CRE-firefly luciferase reporter
T2 sequence (P48546 22-466): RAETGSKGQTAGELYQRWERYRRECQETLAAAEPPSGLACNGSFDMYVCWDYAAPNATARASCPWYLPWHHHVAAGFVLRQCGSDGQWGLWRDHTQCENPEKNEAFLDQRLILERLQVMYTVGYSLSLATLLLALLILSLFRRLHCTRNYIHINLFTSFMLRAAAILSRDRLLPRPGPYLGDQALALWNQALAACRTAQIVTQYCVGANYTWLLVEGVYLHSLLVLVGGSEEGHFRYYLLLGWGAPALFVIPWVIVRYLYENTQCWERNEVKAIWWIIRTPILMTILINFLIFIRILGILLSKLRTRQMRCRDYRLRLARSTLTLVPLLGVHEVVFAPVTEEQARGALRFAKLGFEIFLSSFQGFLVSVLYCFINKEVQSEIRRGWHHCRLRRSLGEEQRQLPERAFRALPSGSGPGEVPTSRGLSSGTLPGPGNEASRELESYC
Described as above. The data set is classed as cell-based. Conditions: compared to the native ligand for the receptor. Here is the method: as §1

A further data set addresses T3, hGcg Receptor (Homo sapiens, UniProt P47871).
T3 construct: expressed in transfected cells; host or cells: baby hamster kidney (BHK) cells, stably transfected, with CRE-firefly luciferase reporter
The description is as above. The class given is cell-based. Conditions: compared to the native ligand for the receptor. Here is the method:
as §1

Structures are written as SMILES.

Results on two compounds are retold here after article PMC9305623, “Next generation GLP-1/GIP/glucagon triple agonists normalize body weight in obese mice” (Molecular Metabolism, 2022).

The term Vd denotes the apparent volume that relates the amount in the body to the concentration in plasma or blood. Read a high Vd as wide distribution into tissue. By clearance is commonly meant the volume of plasma or blood freed of the substance per unit of time.

T1 sequence (P43220 24-463): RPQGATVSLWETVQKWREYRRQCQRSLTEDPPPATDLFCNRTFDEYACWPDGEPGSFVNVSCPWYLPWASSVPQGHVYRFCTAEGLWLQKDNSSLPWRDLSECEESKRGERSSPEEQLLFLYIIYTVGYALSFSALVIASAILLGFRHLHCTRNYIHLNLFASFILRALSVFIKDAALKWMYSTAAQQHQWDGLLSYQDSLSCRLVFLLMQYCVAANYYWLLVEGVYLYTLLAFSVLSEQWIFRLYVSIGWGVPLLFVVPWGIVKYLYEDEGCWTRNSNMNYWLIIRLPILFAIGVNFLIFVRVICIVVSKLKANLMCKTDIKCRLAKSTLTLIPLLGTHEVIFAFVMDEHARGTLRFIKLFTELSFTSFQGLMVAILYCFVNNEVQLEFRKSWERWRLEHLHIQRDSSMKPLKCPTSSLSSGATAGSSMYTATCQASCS
T3 sequence (P47871 26-477): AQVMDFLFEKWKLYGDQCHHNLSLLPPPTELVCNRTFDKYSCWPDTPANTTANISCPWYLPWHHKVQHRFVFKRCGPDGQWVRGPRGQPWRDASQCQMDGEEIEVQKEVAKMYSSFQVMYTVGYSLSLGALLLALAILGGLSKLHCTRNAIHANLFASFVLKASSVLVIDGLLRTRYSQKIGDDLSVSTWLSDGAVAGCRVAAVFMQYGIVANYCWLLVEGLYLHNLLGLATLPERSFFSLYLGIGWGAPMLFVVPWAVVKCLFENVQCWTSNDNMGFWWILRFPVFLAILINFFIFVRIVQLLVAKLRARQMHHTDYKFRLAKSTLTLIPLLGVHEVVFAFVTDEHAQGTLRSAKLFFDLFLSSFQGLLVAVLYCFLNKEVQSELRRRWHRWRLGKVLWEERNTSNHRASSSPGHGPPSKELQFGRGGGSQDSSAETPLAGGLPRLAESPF

With `CC[C@H](C)[C@H](NC(=O)[C@H](CO)NC(=O)[C@H](Cc1ccc(O)cc1)NC(=O)[C@H](CC(=O)O)NC(=O)[C@H](CO)NC(=O)[C@@H](NC(=O)[C@H](Cc1ccccc1)NC(=O)[C@@H](NC(=O)CNC(=O)[C@H](CCC(N)=O)NC(=O)C(C)(C)NC(=O)[C@@H](N)Cc1ccc(O)cc1)[C@@H](C)O)[C@@H](C)O)C(=O)N[C@@H](Cc1ccc(O)cc1)C(=O)N[C@@H](CC(C)C)C(=O)N[C@@H](CC(=O)O)C(=O)N[C@@H](CCCCNC(=O)COCCOCCNC(=O)COCCOCCNC(=O)CC[C@H](NC(=O)CCCCCCCCCCCCCCCCC(=O)O)C(=O)O)C(=O)N[C@@H](CCC(N)=O)C(=O)N[C@@H](C)C(=O)N[C@@H](C)C(=O)NC(C)(C)C(=O)N[C@@H](CCC(=O)O)C(=O)N[C@@H](Cc1ccccc1)C(=O)N[C@H](C(=O)N[C@@H](CC(N)=O)C(=O)N[C@@H](Cc1c[nH]c2ccccc12)C(=O)N[C@@H](CC(C)C)C(=O)N[C@@H](CC(C)C)C(=O)N[C@@H](C)C(=O)NCC(=O)NCC(=O)N1CCC[C@H]1C(=O)N[C@@H](CO)C(=O)N[C@@H](CO)C(=O)NCC(=O)N[C@@H](C)C(=O)N1CCC[C@H]1C(=O)N1CCC[C@H]1C(=O)N1CCC[C@H]1C(=O)N[C@@H](CO)C(N)=O)C(C)C` [Compound 7], in “in vivo”, the Vd stood at 0.121 L/kg and the clearance was 1.4 mL/h/kg. Further, on hGLP-1 Receptor, the “hGLP-1 Receptor Relative Potency %” value is recorded as 93%. The “hGIP Receptor Relative Potency %” value at hGIP Receptor was 38%. The “hGcg Receptor Relative Potency %” value at hGcg Receptor was found to be 12%.
With `CC[C@H](C)[C@H](NC(=O)[C@H](CO)NC(=O)[C@H](Cc1ccc(O)cc1)NC(=O)[C@H](CC(=O)O)NC(=O)[C@H](CO)NC(=O)[C@@H](NC(=O)[C@H](Cc1ccccc1)NC(=O)[C@@H](NC(=O)CNC(=O)[C@H](CCC(N)=O)NC(=O)C(C)(C)NC(=O)[C@@H](N)Cc1ccc(O)cc1)[C@@H](C)O)[C@@H](C)O)C(=O)N[C@@H](Cc1ccc(O)cc1)C(=O)N[C@@H](CC(C)C)C(=O)N[C@@H](CC(=O)O)C(=O)N[C@@H](CCCCNC(=O)COCCOCCNC(=O)COCCOCCNC(=O)CC[C@H](NC(=O)CCCCCCCCCCCCCCCCCCC(=O)O)C(=O)O)C(=O)N[C@@H](CCC(N)=O)C(=O)N[C@@H](C)C(=O)N[C@@H](C)C(=O)NC(C)(C)C(=O)N[C@@H](CCC(=O)O)C(=O)N[C@@H](Cc1ccccc1)C(=O)N[C@H](C(=O)N[C@@H](CC(N)=O)C(=O)N[C@@H](Cc1c[nH]c2ccccc12)C(=O)N[C@@H](CC(C)C)C(=O)N[C@@H](CC(C)C)C(=O)N[C@@H](C)C(=O)NCC(=O)NCC(=O)N1CCC[C@H]1C(=O)N[C@@H](CO)C(=O)N[C@@H](CO)C(=O)NCC(=O)N[C@@H](C)C(=O)N1CCC[C@H]1C(=O)N1CCC[C@H]1C(=O)N1CCC[C@H]1C(=O)N[C@@H](CO)C(N)=O)C(C)C` [Compound 8], in the data set “in vivo”, the Vd amounted to 0.154 L/kg and the clearance is 1.2 mL/h/kg. The “hGLP-1 Receptor Relative Potency %” value on hGLP-1 Receptor was found to be 101%. Further, the “hGIP Receptor Relative Potency %” value at hGIP Receptor came to 39%. Also, the “hGcg Receptor Relative Potency %” value at hGcg Receptor was 6%.
